The target of the experiment is RNA-dependent RNA polymerase (RdRp) comprised in an influenza viral ribonucleoprotein (RNP) complex (Influenza A virus, UniProt P03428+P03431+P03433). As to the kind of experiment: Influenza filter RNP transcription/replication assay (HTS screen using the method of the invention). The settings on record: virus lysate containing native vRNP; which assay (transcription or replication) and which strain are not stated. In kind it is biochemical, Influenza virus (Influenza A/PR/8/34, Influenza B\Lee\40).

In the case of `O=C(O)[C@H]1[C@H]2CC[C@H]([C@H]3C[C@H]32)[C@@H]1Nc1nc(-c2n[nH]c3ncc(F)cc23)ncc1F` [(−)-(1R,2S,4R,5S,6S,7S)-7-((5-fluoro-2-(5-fluoro-1H-pyrazolo[3,4-b]pyridin-3-yl)pyrimidin-4-yl)amino)tricyclo[3.2.2.02,4]nonane-6-carboxylic Acid], 0.2 nM corresponded to half-maximal inhibition (IC50).

What is called IC50 is the midpoint of a concentration-inhibition curve. High values mean a need for much substance, low ones inhibition by little substance.

Source of the values: US20190040447A1, “Assay for compounds having activity against influenza” (priority 2016, published 2019).
